Measured values published in patent publication US20100190755A1, “TETRACYCLINE COMPOUNDS FOR THE TREATMENT OF RHEUMATOID ARTHRITIS AND RELATED METHODS OF TREATMENT” (priority 2008, published 2010).
In brackets after ≈: the same amount, converted by molar mass.

The compounds below were run on IL-6 (assay: Paw extract biomarker ELISA, CIA mice: IL-6). Settings: paw extracts from CIA mice.
Format: in vivo, mouse
Protocol: (§1) • 1. Male DBA/1 mice were immunized i.d. with an emulsion of 200 μg bovine type II collagen in Complete Freund's Adjuvant. • 2. On day 21, mice received i.d. boost of 100 μg collagen in Incomplete Freund's Adjuvant • 3. Compounds were administered i.p. daily for 7 days starting from disease onset (day 3-4 after boost). • 4. Foot swelling was measured by an engineering micrometer and disease severity was scored accordingly (1, erythema and mild swelling confined to the tarsal or ankle joint; 2, erythema and mild swelling extending from the ankle to the mid-foot; 3, erythema and moderate swelling extending from the ankle to the metatarsal joints; 4, erythema and severe swelling encompassing the ankle, foot, and digits). • 5. Change (Δ) of paw thickness=sum of paw thickness from 4 paws of a mouse (experimental)−sum of baseline paw thickness from 4 paws of the same mouse. • 6. % inhibition=cumulative A paw thickness (disease group−compound-treated group)/cumulative A paw thickness (disease group)
(§2) • 1. Paws were collected from mice after 5-7 days of dosing and dissected free of skin. • 2. The paws were then homogenized in ice-cold PBS (2 ml/4 paws/mouse) containing 1× protease inhibitor using a Polytron homogenizer. • 3. Debris and particles were removed from the homogenized samples by centrifugation. • 4. Liquid layers were collected for MMP-9, IL-1, IL-6, RANKL, MCP-1, and TNFα analysis using ELISA kits from R & D System.

Row | SMILES | Percent level of Biomarker Tissue [c] Compared to Untreated Control, IL-6 AVG [%]
1 | CN(Cc1cnc2nc(N)nc(N)c2n1)c1ccc(C(=O)N[C@@H](CCC(=O)O)C(=O)O)cc1 [Methotrexate, methotrexate, reference compound] | 20

These compounds were tested on cytokines (IL-1, IL-6, RANKL and MCP-1) and a matrix metalloproteinase (MMP-9) (assay: Paw extract biomarker ELISA, CIA mice: whole panel (statements in words)). Settings: not given.
Format: in vivo, mouse
Protocol: as §1, §2

Row | SMILES | Footpad tissue levels of cytokines (IL-1, IL-6, RANKL and MCP-1) and MMP-9 after therapeutic treatment
2 | CN(Cc1cnc2nc(N)nc(N)c2n1)c1ccc(C(=O)N[C@@H](CCC(=O)O)C(=O)O)cc1 [Methotrexate, methotrexate, reference compound] | decreased

The compounds below were run on S. aureus RN450 (assay: Antibacterial activity MIC, Gram+ (Table 9)). Settings: Staphylococcus aureus, CAMHB, 35° C., approximately 18 hr.
Format: cell-based
Protocol: (§3) 2 mg of each compound is dissolved in 100 μl of DMSO. The solution is then added to cation-adjusted Mueller Hinton broth (CAMHB), which results in a final compound concentration of 200 μg per ml. The tetracycline compound solutions are diluted to 50 μL volumes, with a test compound concentration of 0.098 μg/ml. Optical density (OD) determinations are made from fresh log-phase broth cultures of the test strains. Dilutions are made to achieve a final cell density of 1×10^6 CFU/ml. At OD=1, cell densities for different genera should be approximately:
(§4) 50 μl of the cell suspensions are added to each well of microtiter plates. The final cell density should be approximately 5×10^5 CFU/ml. These plates are incubated at 35° C. in an ambient air incubator for approximately 18 hr. The plates are read with a microplate reader and are visually inspected when necessary. The MIC is defined as the lowest concentration of the tetracycline compound that inhibits growth.

Row | SMILES | MIC [µg/mL]
3 | CC(=O)c1cc(N(C)C)c2c(c1O)C(=O)C1=C(O)[C@]3(O)C(=O)C(C(N)=O)=C(O)C[C@@H]3C[C@@H]1C2 [Compound T] | 4 (≈ 8.76 µM)
4 | CCCc1cc(N(C)C)c2c(c1O)C(=O)C1=C(O)[C@]3(O)C(=O)C(C(N)=O)=C(O)[C@@H](N(C)C)[C@@H]3C[C@@H]1C2 [E] | 2 (≈ 4 µM)
5 | CCc1ccc2c(c1O)C(=O)C1=C(O)[C@]3(O)C(=O)C(C(N)=O)=C(O)[C@@H](N(C)C)[C@@H]3[C@@H](O)[C@@H]1[C@H]2C [G] | 0.5 (≈ 1.06 µM)

The compounds below were run on E. coli 25922 (assay: Antibacterial activity MIC, Gram- (Table 9)). Settings: Escherichia coli, CAMHB, 35° C., approximately 18 hr.
Format: cell-based
Protocol: as §3, §4

Row | SMILES | MIC [µg/mL]
6 | CC(=O)c1cc(N(C)C)c2c(c1O)C(=O)C1=C(O)[C@]3(O)C(=O)C(C(N)=O)=C(O)C[C@@H]3C[C@@H]1C2 [Compound T] | > 64
7 | CCCc1cc(N(C)C)c2c(c1O)C(=O)C1=C(O)[C@]3(O)C(=O)C(C(N)=O)=C(O)[C@@H](N(C)C)[C@@H]3C[C@@H]1C2 [E] | > 64
8 | CCc1ccc2c(c1O)C(=O)C1=C(O)[C@]3(O)C(=O)C(C(N)=O)=C(O)[C@@H](N(C)C)[C@@H]3[C@@H](O)[C@@H]1[C@H]2C [G] | 16 (≈ 33.9 µM)

Each compound was assayed on IL-1 (assay: Paw extract biomarker ELISA, CIA mice: IL-1). Settings: paw extracts from CIA mice.
Format: in vivo, mouse
Protocol: as §1, §2

Row | SMILES | Percent level of Biomarker Tissue [c] Compared to Untreated Control, IL-1 AVG [%]
9 | CN(Cc1cnc2nc(N)nc(N)c2n1)c1ccc(C(=O)N[C@@H](CCC(=O)O)C(=O)O)cc1 [Methotrexate, methotrexate, reference compound] | 16

These compounds were tested on collagen-induced arthritis (CIA) in male DBA/1 mice (assay: CIA model, Example 3 (cumulative scores vs untreated controls)). Settings: Mus musculus; Dose 12 mg/kg.
Format: in vivo
Protocol: The CIA model data were acquired according to the following protocol: • 1. Male DBA/1 mice were anaesthetized by i.p. injection of ketamine/xylazine (1.25 mg/ml:0.25 mg/ml, 100 μl/mouse). • 2. Anaesthetized mice were immunized intradermally at the base of the tail with 0.1 or 0.2 ml of an emulsion composed of 100 or 200 μg bovine type II collagen in Complete Freund's Adjuvant (50 μl/spot x 2 or 4 spots). • 3. At day 21 after the immunization, mice received an intradermal boost of 100 μl of an emulsion composed of 100 μg bovine type II collagen in Incomplete Freund's Adjuvant (50 μl/spot x 2 spots) • 4. After onset of disease symptoms (usually 3-4 days after boost), tetracycline derivatives were administered daily into mice via intraperitoneal or oral routes for 8 to 15 days. Methotrexate (12 mg/kg/day) or dexmethasone (4 mg/kg/day) was used as a control for inflammation suppression. • 5. The disease severity was scored daily for 8-15 days after the appearance of the symptoms. Disease severity was graded as following: • a. Visual clinical score for the presence of inflammation in the fingers/toes of the forepaws and hindpaws: • 1. Erythema and mild swelling confined to the mid-foot (tarsals) or ankle joint • 2. Erythema and mild swelling extending from the ankle to the mid-foot • 3. Erythema and moderate swelling extending from the ankle to the metatarsal joints • 4. Erythema and severe swelling encompassing the ankle, foot, and digits. • b. Clinical swelling score for the presence of paw edema in the forepaws and hindpaws: • Paw thickness was measured daily by an engineering micrometer after isofluorane inhalation or ketamine/xylazine (1.25 mg/ml:0.25 mg/ml, 100 μl/mouse) i.p. injection.
Daily scores and paw swelling measurements for each treatment group of mice were added over the total observation period to obtain a cumulative score. Cumulative scores were compared between untreated controls and treated groups to determine tetracycline-induced inhibition.

Row | SMILES | inhibition in vivo at 12 mg/kg [%]
10 | CC(=O)c1cc(N(C)C)c2c(c1O)C(=O)C1=C(O)[C@]3(O)C(=O)C(C(N)=O)=C(O)C[C@@H]3C[C@@H]1C2 [Compound T] | 10

Same assay, conditions: Mus musculus; Dose 25 mg/kg

Row | SMILES | inhibition in vivo at 25 mg/kg [%]
11 | CC(=O)c1cc(N(C)C)c2c(c1O)C(=O)C1=C(O)[C@]3(O)C(=O)C(C(N)=O)=C(O)C[C@@H]3C[C@@H]1C2 [Compound T] | 44
12 | CCCc1cc(N(C)C)c2c(c1O)C(=O)C1=C(O)[C@]3(O)C(=O)C(C(N)=O)=C(O)[C@@H](N(C)C)[C@@H]3C[C@@H]1C2 [E] | 44
13 | CCc1ccc2c(c1O)C(=O)C1=C(O)[C@]3(O)C(=O)C(C(N)=O)=C(O)[C@@H](N(C)C)[C@@H]3[C@@H](O)[C@@H]1[C@H]2C [G] | 55

Each compound was assayed on MMP-9 (assay: Paw extract biomarker ELISA, CIA mice: MMP-9). Settings: paw extracts from CIA mice.
Format: in vivo, mouse
Protocol: as §1, §2

Row | SMILES | Percent level of Biomarker Tissue [c] Compared to Untreated Control, MMP-9 AVG [%]
14 | CN(Cc1cnc2nc(N)nc(N)c2n1)c1ccc(C(=O)N[C@@H](CCC(=O)O)C(=O)O)cc1 [Methotrexate, methotrexate, reference compound] | 52

Each compound was assayed on collagen-induced arthritis (CIA) in male DBA/1 mice (assay: Murine collagen-induced arthritis (CIA) model, Example 2). Settings: 12 mg/kg.
Format: in vivo, mouse
Protocol: Four non-antibacterial analogues of minocycline (J, W, AF and AT) were synthesized and tested in the murine model of the disease, collagen-induced arthritis (CIA) (See supra). Male DBA/1 mice were immunized intradermally with 200 μg of bovine type II collagen and boosted with collagen three weeks later. Minocycline and four non-antibacterial minocycline derivatives were administered i.p. beginning after disease onset. Paw thickness was measured and animals were scored daily.
as §1

Row | SMILES | % Inhibition (Change in Paw Thickness) AVG [%] | % Inhibition (Clinical Score) AVG [%]
15 | CN(Cc1cnc2nc(N)nc(N)c2n1)c1ccc(C(=O)N[C@@H](CCC(=O)O)C(=O)O)cc1 [Methotrexate, methotrexate, reference compound] | 45 | 25

Same assay, conditions: day 1 of dosing; 12 mg/kg/day i.p.

Row | SMILES | Change in Paw Thickness (mm) Mean [mm]
16 | CN(Cc1cnc2nc(N)nc(N)c2n1)c1ccc(C(=O)N[C@@H](CCC(=O)O)C(=O)O)cc1 [Methotrexate, methotrexate, reference compound] | 0.77

Same assay, conditions: day 2 of dosing; 12 mg/kg/day i.p.

Row | SMILES | Change in Paw Thickness (mm) Mean [mm]
17 | CN(Cc1cnc2nc(N)nc(N)c2n1)c1ccc(C(=O)N[C@@H](CCC(=O)O)C(=O)O)cc1 [Methotrexate, methotrexate, reference compound] | 0.68

Same assay, conditions: day 3 of dosing; 12 mg/kg/day i.p.

Row | SMILES | Change in Paw Thickness (mm) Mean [mm]
18 | CN(Cc1cnc2nc(N)nc(N)c2n1)c1ccc(C(=O)N[C@@H](CCC(=O)O)C(=O)O)cc1 [Methotrexate, methotrexate, reference compound] | 0.71

Same assay, conditions: day 4 of dosing; 12 mg/kg/day i.p.

Row | SMILES | Change in Paw Thickness (mm) Mean [mm]
19 | CN(Cc1cnc2nc(N)nc(N)c2n1)c1ccc(C(=O)N[C@@H](CCC(=O)O)C(=O)O)cc1 [Methotrexate, methotrexate, reference compound] | 0.68

Same assay, conditions: day 5 of dosing; 12 mg/kg/day i.p.

Row | SMILES | Change in Paw Thickness (mm) Mean [mm]
20 | CN(Cc1cnc2nc(N)nc(N)c2n1)c1ccc(C(=O)N[C@@H](CCC(=O)O)C(=O)O)cc1 [Methotrexate, methotrexate, reference compound] | 0.67

Same assay, conditions: day 6 of dosing; 12 mg/kg/day i.p.

Row | SMILES | Change in Paw Thickness (mm) Mean [mm]
21 | CN(Cc1cnc2nc(N)nc(N)c2n1)c1ccc(C(=O)N[C@@H](CCC(=O)O)C(=O)O)cc1 [Methotrexate, methotrexate, reference compound] | 0.56

Same assay, conditions: day 7 of dosing; 12 mg/kg/day i.p.

Row | SMILES | Change in Paw Thickness (mm) Mean [mm]
22 | CN(Cc1cnc2nc(N)nc(N)c2n1)c1ccc(C(=O)N[C@@H](CCC(=O)O)C(=O)O)cc1 [Methotrexate, methotrexate, reference compound] | 0.45

Same assay, conditions: day 8 of dosing; 12 mg/kg/day i.p.

Row | SMILES | Change in Paw Thickness (mm) Mean [mm]
23 | CN(Cc1cnc2nc(N)nc(N)c2n1)c1ccc(C(=O)N[C@@H](CCC(=O)O)C(=O)O)cc1 [Methotrexate, methotrexate, reference compound] | 0.28

Each compound was assayed on MCP-1 (assay: Paw extract biomarker ELISA, CIA mice: MCP-1). Settings: paw extracts from CIA mice.
Format: in vivo, mouse
Protocol: as §1, §2

Row | SMILES | Percent level of Biomarker Tissue [c] Compared to Untreated Control, MCP-1 AVG [%]
24 | CN(Cc1cnc2nc(N)nc(N)c2n1)c1ccc(C(=O)N[C@@H](CCC(=O)O)C(=O)O)cc1 [Methotrexate, methotrexate, reference compound] | 37
